Data taken from patent US8946282B2, “Indolin-2-one derivatives as protein kinase inhibitors” (Annji Pharmaceutical Co., Ltd., priority 2012, dated 2015).
Read-outs that look alike come from different tables or passages of the source.

What was measured:
aurora B = aurora B (Homo sapiens, UniProt Q96GD4); assay: radioisotope-based P81 filter-binding assay, aurora B kinase; type: biochemical; settings: for inhibition at 1 µM: compound at 1.0 μM, mean values (n=2), read-out: percent inhibition of enzyme catalytic activity, Aur B (numbers in parentheses); for IC50: read-out: Enzyme assay IC50 Aur B
Chain of aurora B (Q96GD4 whole entry): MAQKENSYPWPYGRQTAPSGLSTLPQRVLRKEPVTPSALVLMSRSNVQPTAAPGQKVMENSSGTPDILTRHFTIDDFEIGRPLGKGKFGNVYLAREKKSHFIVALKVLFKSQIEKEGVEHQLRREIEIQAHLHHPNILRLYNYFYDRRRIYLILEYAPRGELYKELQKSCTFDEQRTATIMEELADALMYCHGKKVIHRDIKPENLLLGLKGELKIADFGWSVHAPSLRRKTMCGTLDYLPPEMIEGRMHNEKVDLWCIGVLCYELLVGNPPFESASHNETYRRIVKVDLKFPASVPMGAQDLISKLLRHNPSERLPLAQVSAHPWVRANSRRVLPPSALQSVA
Description: (§1) Compounds of formula (I)-(IV) were evaluated for abilities in inhibiting protein kinases aurora B and FLT-3 activity using radioisotope-based P81 filter-binding assay (Table 1).

FLT-3 = biological target: T1, FLT-3 (Homo sapiens, UniProt P36888); assay: radioisotope-based P81 filter-binding assay, FLT-3 kinase; type: biochemical; settings: for inhibition at 1 µM: compound at 1.0 μM, mean values (n=2), read-out: percent inhibition of enzyme catalytic activity, FLT-3 (numbers in parentheses); for IC50: averaged from two independent dose-response curves, read-out: Enzyme assay IC50 FLT-3
T1 sequence (P36888 27-993): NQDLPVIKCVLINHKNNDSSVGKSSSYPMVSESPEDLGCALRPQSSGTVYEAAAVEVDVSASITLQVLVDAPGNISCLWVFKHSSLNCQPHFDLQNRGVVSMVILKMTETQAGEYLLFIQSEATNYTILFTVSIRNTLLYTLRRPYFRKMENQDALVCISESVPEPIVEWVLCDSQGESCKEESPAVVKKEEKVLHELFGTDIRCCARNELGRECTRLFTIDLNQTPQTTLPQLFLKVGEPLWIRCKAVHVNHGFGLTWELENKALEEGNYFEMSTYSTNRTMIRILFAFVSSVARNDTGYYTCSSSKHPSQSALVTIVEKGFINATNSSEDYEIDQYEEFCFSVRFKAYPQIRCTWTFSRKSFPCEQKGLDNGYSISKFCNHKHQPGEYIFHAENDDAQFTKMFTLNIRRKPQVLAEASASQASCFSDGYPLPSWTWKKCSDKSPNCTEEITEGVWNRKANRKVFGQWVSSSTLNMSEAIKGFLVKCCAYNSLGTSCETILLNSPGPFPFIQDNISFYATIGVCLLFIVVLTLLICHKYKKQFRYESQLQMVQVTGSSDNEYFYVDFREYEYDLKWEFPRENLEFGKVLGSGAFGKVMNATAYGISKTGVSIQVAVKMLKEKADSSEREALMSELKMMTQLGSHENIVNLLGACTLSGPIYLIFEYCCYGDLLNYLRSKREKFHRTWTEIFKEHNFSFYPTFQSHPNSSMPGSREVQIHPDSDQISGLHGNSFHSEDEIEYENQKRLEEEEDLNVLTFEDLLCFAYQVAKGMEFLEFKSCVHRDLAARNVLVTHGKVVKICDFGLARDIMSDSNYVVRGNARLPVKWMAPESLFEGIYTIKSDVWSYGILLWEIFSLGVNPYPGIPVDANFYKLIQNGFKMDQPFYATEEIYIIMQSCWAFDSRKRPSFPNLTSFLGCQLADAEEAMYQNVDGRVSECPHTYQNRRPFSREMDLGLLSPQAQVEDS
Description: as §1

[1] = averaged from two independent dose-response curves

Compound | melting point | inhibition at 1 µM (aurora B) [%] | inhibition at 1 µM (FLT-3) [%] | IC50 (FLT-3) [nM] | IC50 (aurora B; [1]) [nM] | IC50 (aurora B) [nM]
Cc1[nH]c(/C=C2\C(=O)Nc3cc(NC(=O)NC(=O)c4ccc(Cl)c(C(F)(F)F)c4)ccc32)c(C)c1CCC(=O)O (hydrate or solvate) [D37, (Z)-3-(5-((6-(3-(4-chloro-3-(trifluoromethyl)benzoyl)ureido)-2-oxo-indolin-3-ylidene)methyl)-2,4-dimethyl-1H-pyrrol-3-yl)propanoic acid] | 270 to 275 °C (dec.) |  |  |  |  | 
COc1ccc(C(=O)NC(=O)Nc2ccc3c(c2)NC(=O)C3=Cc2ccco2)cc1 (stereo in doubt) [D23, (E)-N-(3-(furan-2-ylmethylene)-2-oxoindolin-6-ylcarbamoyl)-4-methoxybenzamide] | 278 to 283 °C (dec.) | 44 | 15.4 |  |  | 
COc1ccc(C(=O)NC(=O)Nc2cccc3c2/C(=C/c2ccc[nH]2)C(=O)N3)cc1 [D13, (Z)—N-(3-((1H-pyrrol-2-yl)methylene)-2-oxoindolin-4-ylcarbamoyl)-4-methoxybenzamide] |  | 11.2 |  | 58.2 |  | 
COc1ccc(C(=O)NC(=O)Nc2ccc3c(c2)NC(=O)/C3=C/c2ccccc2)cc1 [D17, (E)-N-(3-benzylidene-2-oxoindolin-6-ylcarbamoyl)-4-methoxybenzamide] | 277 to 282 °C (dec.) | 61.2 | 34.4 |  |  | 
COc1ccc(C(=O)NC(=O)Nc2ccc3c(c2)NC(=O)/C3=C/c2ccc(Cl)cc2)cc1 [D18, (E)-N-(3-(4-chlorobenzylidene)-2-oxoindolin-6-ylcarbamoyl)-4-methoxybenz-amide] | 278 to 283 °C (dec.) | 12.8 | 6.1 |  |  | 
COc1ccc(/C=C2/C(=O)Nc3cc(NC(=O)NC(=O)c4ccc(OC)cc4)ccc32)cc1 [D19, (E)-4-methoxy-N-(3-(4-methoxybenzylidene)-2-oxoindolin-6-yl-carbamoyl)benzamide] | 274 to 279 °C (dec.) | 55.9 | 43.2 |  |  | 
COc1ccc(C(=O)NC(=O)Nc2ccc3c(c2)NC(=O)/C3=C\c2ccccn2)cc1 [D20, (Z)-4-methoxy-N-(2-oxo-3-(pyridin-2-ylmethylene)indolin-6-ylcarbamoyl)benzamide] | 268 to 273 °C (dec.) | 28.7 |  | > 1000 |  | 
COc1ccc(C(=O)NC(=O)Nc2ccc3c(c2)NC(=O)/C3=C\c2ccncc2)cc1 [D21, (Z)-4-methoxy-N-(2-oxo-3-(pyridin-4-ylmethylene)indolin-6-ylcarbamoyl)benzamide] | 270 to 275 °C (dec.) | 7 | 3.6 |  |  | 
COc1ccc(C(=O)NC(=O)Nc2ccc3c(c2)NC(=O)/C3=C\c2cccs2)cc1 [D22, (Z)-4-methoxy-N-(2-oxo-3-(thiophen-2-ylmethylene)indolin-6-ylcarbamoyl)benzamide] | 262 to 267 °C (dec.) |  |  | > 1000 | 21.5 | 
Cc1[nH]c(/C=C2\C(=O)Nc3cc(NC(=O)NC(=O)c4ccccc4)ccc32)c(C)c1C(=O)O [D32, (Z)-5-((6-(3-benzoylureido)-2-oxoindolin-3-ylidene)methyl)-2,4-dimethyl-1H-pyrrole-3-carboxylic acid] | 270 to 275 °C (dec.) |  |  | 904 | 2.1 | 
Cc1[nH]c(/C=C2\C(=O)Nc3cc(NC(=O)NC(=O)c4ccc(Cl)c(Cl)c4)ccc32)c(C)c1C(=O)O [D34, (Z)-5-((6-(3-(3,4-dichlorobenzoyl)ureido)-2-oxoindolin-3-ylidene)methyl)-2,4-dimethyl-1H-pyrrole-3-carboxylic acid] | 295 to 300 °C (dec.) |  |  | 54.2 | 2.1 | 
COc1ccc(C(=O)NC(=O)Nc2ccc3c(c2)NC(=O)/C3=C\c2[nH]c(C)c(CCC(=O)O)c2C)cc1 [D47, (Z)-3-(5-((6-(3-(4-methoxybenzoyl)ureido)-2-oxoindolin-3-ylidene)methyl)-2,4-dimethyl-1H-pyrrol-3-yl)propanoic acid] |  |  |  | 2.7 | 1.2 | 
COc1ccc(C(=O)NC(=O)Nc2cc3c(cc2F)/C(=C/c2[nH]c(C)c(C(=O)O)c2C)C(=O)N3)cc1 [D49] |  |  |  | 909 | 1.5 | 
COc1ccc(C(=O)NC(=O)Nc2cc3c(cc2F)/C(=C/c2[nH]c(C)c(CCC(=O)O)c2C)C(=O)N3)cc1 [D51, (Z)-3-(5-((5-fluoro-6-(3-(4-methoxybenzoyl)ureido)-2-oxoindolin-3-ylidene)-methyl)-2,4-dimethyl-1H-pyrrol-3-yl)propanoic acid] |  |  |  |  |  | 3
COc1ccc(C(=O)NC(=O)Nc2ccc3c(c2)NC(=O)/C3=C\c2[nH]c(C)c(CCC(=O)O)c2C)c(F)c1 [D58, (Z)-3-(5-((6-(3-(2-fluoro-4-methoxybenzoyl)uriedo)-2-oxoindolin-3-ylidene)methyl)-2,4-dimethyl-1H-pyrrol-3-yl)propanoic acid] |  |  |  | 10 | 1.3 | 
COc1ccc(C(=O)NC(=O)Nc2cc3c(cc2F)/C(=C/c2[nH]c(C)c(C(=O)O)c2C)C(=O)N3)c(F)c1 [D59, (Z)-5-((5-fluoro-6-(3-(2-fluoro-4-methoxybenzoyl)ureido)-2-oxoindolin-3-ylidene)methyl)-2,4-dimethyl-1H-pyrrole-3-carboxylic acid] |  |  |  | 406 | 3 | 
CCOC(=O)CCc1c(C)[nH]c(/C=C2\C(=O)Nc3cc(NC(=O)NC(=O)c4ccc(OC)cc4F)ccc32)c1C [D63, (Z)-ethyl-3-(5-((6-(3-(2-fluoro-4-methoxybenzoyl)ureido)-2-oxoindolin-3-ylidene)methyl)-2,4-dimethyl-1H-pyrrol-3-yl)propanoate] |  |  |  | 3840 | 218 | 
COc1ccc(NC(=O)CC(=O)Nc2ccc3c(c2)NC(=O)/C3=C\c2ccc[nH]2)cc1 [D76, (Z)—N^1-(3-((1H-pyrrol-2-yl)methylene)-2-oxoindolin-6-yl)-N^3-(4-methoxyphenyl)malonamide] |  |  |  |  | 29.6 | 
O=C1Nc2cc(NC(=O)N3CCN(c4ccccc4F)C3=O)ccc2/C1=C/c1ccc[nH]1 [D90, (Z)—N-(3-((1H-pyrrol-2-yl)methylene)-2-oxoindolin-6-yl)-3-(2-fluorophenyl)-2-oxoimidazolidine-1-carboxamide] |  |  |  | > 10000 | 1.8 | 
COc1ccc(N2CCN(C(=O)Nc3ccc4c(c3)NC(=O)/C4=C\c3ccc[nH]3)C2=O)c(F)c1 [D94, (Z)—N-(3-((1H-pyrrol-2-yl)methylene)-2-oxoindolin-6-yl)-3-(2-fluoro-4-methoxyphenyl)-2-oxoimidazolidine-1-carboxamide] |  |  |  | > 10000 | 4.4 | 
Cc1[nH]c(/C=C2\C(=O)Nc3cc(NC(=O)N4CCN(C5CC5)C4=O)ccc32)c(C)c1CCC(=O)O [D98, (Z)-3-(5-((6-(3-cyclopropyl-2-oxoimidazolidine-1-carboxamido)-2-oxoindolin-3-ylidene)methyl)-2,4-dimethyl-1H-pyrrol-3-yl)propanoic acid] |  |  |  | 119 | 3.2 | 
Cc1[nH]c(/C=C2\C(=O)Nc3cc(NC(=O)c4c[nH]cc(-c5ccc(F)cc5F)c4=O)ccc32)c(C)c1CCC(=O)O [D147, (Z)-3-(5-((6-(5-(2,4-difluorophenyl)-4-oxo-1,4-dihydropyridine-3-carboxamido)-2-oxoindolin-3-ylidene)methyl)-2,4-dimethyl-1H-pyrrol-3-yl)propanoic acid] |  |  |  | 2.9 | 6.2 | 
Cc1[nH]c(/C=C2\C(=O)Nc3cc(NC(=O)c4c[nH]cc(-c5ccc(F)cc5)c4=O)ccc32)c(C)c1C(=O)N1CCOCC1 [D152, (Z)—N-(3-((3,5-dimethyl-4-(morpholine-4-carbonyl)-1H-pyrrol-2-yl)methylene)-2-oxoindolin-6-yl)-5-(4-fluorophenyl)-4-oxo-1,4-dihydropyridine-3-carboxamide] |  |  |  | 753 | 2.9 | 
Cc1[nH]c(/C=C2\C(=O)Nc3cc(NC(=O)c4c[nH]cc(-c5ccc(F)cc5)c4=O)ccc32)c(C)c1CC(=O)N1CCOCC1 [D153, (Z)—N-(3-((3,5-dimethyl-4-(2-morpholino-2-oxoethyl)-1H-pyrrol-2-yl)methylene)-2-oxoindolin-6-yl)-5-(4-fluorophenyl)-4-oxo-1,4-dihydropyridine-3-carboxamide] |  |  |  | 2.7 | 73.9 | 
